Target: Tyrosine-protein kinase BTK (Homo sapiens, UniProt Q06187)
Experiment: Biochemical Assay: A generalized procedure for a standard biochemical Btk Kinase Assay that can be used to test Formula I compounds is as follows. A master mix minus Btk enzyme is prepared containing IX Cell Signaling kinase buffer (25 mM Tris-HCl, pH 7.5, 5 mM beta- glycerophosphate, 2 mM dithiothreitol, 0.1 mM Na3V04, 10 mM MgCl2), 0.5 ul Promega PTK Biotinylated peptide substrate 2, and 0.01% BSA. A master mix plus Btk enzyme is prepared containing IX Cell Signaling kinase buffer, 0.5 ul PTK Biotinylated peptide substrate 2, 0.01% BSA, and 100 ng/well (0.06 mU/well) Btk enzyme. Btk enzyme is prepared as follows: full length human wildtype Btk (accession number NM-000061) with a C-terminal V5 and 6x His tag was subcloned into pFastBac vector for making baculo virus carrying this epitope-tagged Btk. Generation of baculovirus is done based on Invitrogen's instructions detailed in its published protocol "Bac-to-Bac Baculovirus Expression Systems".

Chain of Tyrosine-protein kinase BTK (Q06187 whole entry): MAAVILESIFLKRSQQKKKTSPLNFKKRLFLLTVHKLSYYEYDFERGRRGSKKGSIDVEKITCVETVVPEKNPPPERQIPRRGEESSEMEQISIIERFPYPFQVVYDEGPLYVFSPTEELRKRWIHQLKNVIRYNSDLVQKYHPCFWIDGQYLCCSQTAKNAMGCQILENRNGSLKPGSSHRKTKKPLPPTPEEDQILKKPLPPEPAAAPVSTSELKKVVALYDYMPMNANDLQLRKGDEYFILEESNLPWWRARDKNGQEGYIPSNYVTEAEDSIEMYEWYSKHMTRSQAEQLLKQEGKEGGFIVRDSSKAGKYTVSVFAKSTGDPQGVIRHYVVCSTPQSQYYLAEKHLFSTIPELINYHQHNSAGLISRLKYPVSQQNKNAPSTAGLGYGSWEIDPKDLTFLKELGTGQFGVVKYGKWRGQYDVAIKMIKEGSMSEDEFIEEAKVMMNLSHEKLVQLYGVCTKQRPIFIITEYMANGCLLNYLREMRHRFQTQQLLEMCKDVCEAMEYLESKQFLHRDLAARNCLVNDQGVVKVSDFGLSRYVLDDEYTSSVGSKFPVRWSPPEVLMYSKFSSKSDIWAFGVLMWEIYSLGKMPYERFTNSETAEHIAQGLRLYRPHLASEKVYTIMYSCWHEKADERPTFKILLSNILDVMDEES

For Cc1cc(Nc2cc(-c3ccc(F)c(N4Cc5cc(C(C)(C)C)sc5C4=O)c3)n[nH]c2=O)nn1C, which IC50 is on record?
The IC50 was 9 nM.
